These results are taken from patent publication US4414332A (Boehringer Mannheim GmbH, priority 1980, dated 1983).

Entries after “also recorded” stand apart in the source; their conditions may differ. Read-outs that look alike come from different tables or passages of the source.

The assay concerns the target T1, endoproteinase-Lys-C (Lysobacter enzymogenes, UniProt Q7M135).
T1 construct: consists of a chain of molecular weight 35000 to 38000 Dalton; made in house
Kind of assay: Inhibition of endoproteinase-Lys-C by protease inhibitors. The assay is classed as biochemical, Lysobacter enzymogenes ssp. enzymogenes.

T1 sequence (Q7M135 whole entry): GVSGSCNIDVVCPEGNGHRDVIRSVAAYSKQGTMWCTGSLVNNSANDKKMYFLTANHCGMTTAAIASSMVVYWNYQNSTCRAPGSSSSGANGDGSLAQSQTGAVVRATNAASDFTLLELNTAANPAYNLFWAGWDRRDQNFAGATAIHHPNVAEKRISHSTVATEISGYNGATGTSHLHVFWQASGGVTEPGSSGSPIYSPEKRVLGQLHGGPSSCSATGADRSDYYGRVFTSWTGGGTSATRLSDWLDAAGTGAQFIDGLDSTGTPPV

By inhibition is commonly meant how much of the control response was suppressed. With `N=C(N)c1ccccc1` [Benzamidine], the inhibition at 2500 µM (at 2.5 mM, read-out: inhibition of the enzyme) is roughly 50%.

On to `O=C(O)CN(CCN(CC(=O)O)CC(=O)O)CC(=O)O` [ethylenediaminetetraacetic acid], for which the “inhibition of the enzyme” value is listed as “not inhibited”. For the setting “EDTA up to 10^-2 M”, the “inhibition of the enzyme” value is “do not inhibit”.

Regarding aprotinin, the “inhibition of the enzyme” value is listed as “inhibited”. The “inhibition of the enzyme” value (listed as Aprotonin) was “inhibits the enzyme completely”.

As for α1 -antitrypsin, the “inhibition of the enzyme” value is given as “not inhibited; also recorded: do not inhibit”.

For the molecule α2 -macroglobulin, the “inhibition of the enzyme” value was “not inhibited”. For the same molecule, for the setting “listed as alpha2 microglobulin”, the “inhibition of the enzyme” value is reported as “do not inhibit”.
